Patent US20260374767A1, “FUSED HETEROCYCLIC COMPOUNDS AND USES THEREOF” (Chengdu Zenitar Biomedical Technology Co., Ltd., priority 2022, published 2026)

Columns and labels:
breast cancer MDA-MB-436 [1] = assay: In-vivo pharmacodynamic study on subcutaneous xenograft tumor model of breast cancer MDA-MB-436; parameters: species or system human tumor cells in NOD/SCID mice; settings: for inhibitory effects on tumor growth compared to blank control group: all dose groups
Experimental: Strain: NOD/SCID; Grade: SPF; Source: Beijing Vitron River Bio-technology Co., Ltd.
The cells were washed 3 times with pre-cooled PBS, centrifuged at 300 g for 10 min, collected, re-suspended in PBS, and counted with a blood cell counting chamber, and the cell concentration was adjusted. After cell collection, the cell suspension was pre-cooled on ice. 100 μL of the cell suspension was administered via subcutaneous injection into the dorsal flank of the mice, and the grouped treatment was started when the tumor volume reached 200-300 mm^3.
Animal assay: all viable experimental animals scheduled for assay; Assay time: All animals were weighed before the modeling for test grouping. After modeling, the mice were weighed once every 2 days, and the weight change of the mice was recorded in real time. Effective criteria: tumor volume (TV), relative tumor volume (RTV) and relative tumor growth rate of subcutaneously implanted tumor model. […] The calculation formula of tumor volume (TV) was: TV (mm^3)=a×b2×0.5, where a and b were the long diameter and short diameter, respectively.
The evaluation index for anti-tumor activity was the relative tumor growth rate T/C (%), and the calculation formula was as follows: […]
Where, TRTV is relative tumor volume of the treatment group; CRTV is relative tumor volume of the negative control group. […] The tumor inhibition rate (%) was calculated by the formula below: […]
All raw data within the facility were collected manually according to the experimental scheme and the relevant guidelines of the research institution, or gathered by using a data acquisition system. Manually collected data can be transcribed into software such as Excel for analysis and reporting. The data from each group were quantitative, and the experimental data for each group of animals in the tables were expressed as mean±standard deviation (Mean±SD). In the figures, the experimental data ware described as mean±standard error of the mean (Mean±SEM). Statistical analysis, including t-tests and survival analysis, was performed by using the software such as EXCEL and GraphPad Prism.
After 24 days of administration, the tumor-bearing mice were anesthetized and euthanized. The tumor tissues were dissected, weighed, and photographed, and the tumor inhibition rate was calculated.

[2] = Body weight in MDA-MB-436 xenograft study; assay type: in vivo, NOD/SCID mice; settings: for Body weight X ± SD, End: 24 days
Experimental: Animal assay: all viable experimental animals scheduled for assay; Assay time: All animals were weighed before the modeling for test grouping. After modeling, the mice were weighed once every 2 days, and the weight change of the mice was recorded in real time. Effective criteria: tumor volume (TV), relative tumor volume (RTV) and relative tumor growth rate of subcutaneously implanted tumor model. The long diameter and short diameter of the tumor was measured with vernier calipers every 2 days, and the anti-tumor effects of the tested drug was dynamically observed. The calculation formula of tumor volume (TV) was: TV (mm^3)=a×b2×0.5, where a and b were the long diameter and short diameter, respectively.
Each group consisted of 6 mice, all of which are administered orally once daily. […] After 24 days of administration, the tumor-bearing mice were anesthetized and euthanized. The tumor tissues were dissected, weighed, and photographed, and the tumor inhibition rate was calculated.

breast cancer MDA-MB-436 [3] = assay: Challenge experiment on subcutaneous xenograft tumor model of breast cancer MDA-MB-436 (large-volume tumors); settings: 1 mg/kg orally once per day
[4] = Pharmacokinetic evaluation in Balb/c mice; assay type: in vivo; settings: mouse, plasma, 1 mg/kg, PO
MDA-MB-436 cells = assay: Anti-proliferative activity assay, BRCA-mutated MDA-MB-436 cells (CCK8); assay type: cell-based; settings: Homo sapiens, MDA-MB-436, BRCA-mutated, 72 h + 96 h
Excerpt: (§1) 2. Anti-Proliferative Activity Assay of Cell:

DLD-1 cells = assay: Anti-proliferative activity assay, BRCA wild-type DLD-1 cells (CCK8); assay type: cell-based; settings: Homo sapiens, 72 h + 96 h
Excerpt: as §1

PARP1 = PARP1 (Homo sapiens, UniProt P09874); assay: Determination of PARP1 Enzyme; assay type: biochemical; settings: read-out: PARP-1 inhibition ratio
Experimental: 1.1 Determination of PARP1 Enzyme
1.1.1 Preparation of buffer solution: PBST: 1× PBS, 0.05% Tween-20; blocking solution: 1× PBS, 0.05% Tween-20, 5% BSA; reaction buffer: 50 mM Tris-HCl (pH 7.5), 0.005% Tween-20, 0.01% BSA.
1.1.2 Coating: A 50 ng/mL Histone coating solution was prepared by using 1× PBS, 25 μL of the coating solution was transferred to a 384-well reaction plate, and the reaction plate was coated overnight at 4 °C.
1.1.3 Washing: After the coating was completed, the coating solution was discarded, and the reaction plate was washed with the PBST solution by means of transferring 50 μL of the PBST to the 384-well reaction plate, letting it stand for 5 min, discarding the washing solution, refilling the reaction plate, and repeating the washing process 3 times. Finally, the reaction plate was tapped dry and the next step of blocking was proceeded with.
1.1.4 Blocking: 50 μL of the blocking solution was transferred to the 384-well reaction plate and set for 1 h.
Washing: After the blocking was completed, the blocking solution was discarded, the reaction plate was washed 3 times with the PBST solution according to the method in Step 2, and the reaction plate was tapped dry.
1.1.5 A 1,000× compound was prepared, 1 μL of the compound was transferred to a 96-well plate containing 199 μL of the reaction buffer, mixed well, and then 5 µL of the mixed compound was transferred to the 384-well reaction plate.
1.1.6 A 25/10× PARP1-DNA solution was prepared by using the reaction buffer, 10 μL of the PARP1-DNA solution was transferred to the 384-well reaction plate. For a negative control well, 10 μL of the DNA solution was transferred and the final concentration of PARP1 was 0.02 nM and that of DNA was 0.8 nM.
1.1.9 Washing: After the reaction was completed, the reaction liquid was discarded. The reaction plate was washed 3 times with the PBST solution according to the method in Step 2, and the reaction plate was tapped dry.
1.1.11 Washing: The anti-Poly/Mono-ADP Ribose Rabbit was discarded, the reaction plate was washed 3 times with the PBST solution according to the method in Step 2, and the reaction plate was tapped dry.
1.1.12 A 2,000× anti-rabbit IgG, HRP-linked Antibody was diluted with the blocking solution, 20 μL of the diluted anti-rabbit IgG, HRP-linked Antibody was added, and incubated at room temperature for 1 h.
1.1.13 Washing: The anti-rabbit IgG, HRP-linked Antibody was discarded, the reaction plate was washed 3 times with the PBST solution according to the method in Step 2, and the reaction plate was tapped dry.
1.1.14 Color developing: Femto-ECL Substrate A and Femto-ECL Substrate B were mixed in a 1:1 ratio, and 25 μL of the mixture was transferred to the 384-well reaction plate.
1.1.15 Reading: A relative light unit (RLU) was read with Envision.

[5] = 0.1 mg/kg orally once daily, 24 days

PARP1, sequence (P09874 whole entry): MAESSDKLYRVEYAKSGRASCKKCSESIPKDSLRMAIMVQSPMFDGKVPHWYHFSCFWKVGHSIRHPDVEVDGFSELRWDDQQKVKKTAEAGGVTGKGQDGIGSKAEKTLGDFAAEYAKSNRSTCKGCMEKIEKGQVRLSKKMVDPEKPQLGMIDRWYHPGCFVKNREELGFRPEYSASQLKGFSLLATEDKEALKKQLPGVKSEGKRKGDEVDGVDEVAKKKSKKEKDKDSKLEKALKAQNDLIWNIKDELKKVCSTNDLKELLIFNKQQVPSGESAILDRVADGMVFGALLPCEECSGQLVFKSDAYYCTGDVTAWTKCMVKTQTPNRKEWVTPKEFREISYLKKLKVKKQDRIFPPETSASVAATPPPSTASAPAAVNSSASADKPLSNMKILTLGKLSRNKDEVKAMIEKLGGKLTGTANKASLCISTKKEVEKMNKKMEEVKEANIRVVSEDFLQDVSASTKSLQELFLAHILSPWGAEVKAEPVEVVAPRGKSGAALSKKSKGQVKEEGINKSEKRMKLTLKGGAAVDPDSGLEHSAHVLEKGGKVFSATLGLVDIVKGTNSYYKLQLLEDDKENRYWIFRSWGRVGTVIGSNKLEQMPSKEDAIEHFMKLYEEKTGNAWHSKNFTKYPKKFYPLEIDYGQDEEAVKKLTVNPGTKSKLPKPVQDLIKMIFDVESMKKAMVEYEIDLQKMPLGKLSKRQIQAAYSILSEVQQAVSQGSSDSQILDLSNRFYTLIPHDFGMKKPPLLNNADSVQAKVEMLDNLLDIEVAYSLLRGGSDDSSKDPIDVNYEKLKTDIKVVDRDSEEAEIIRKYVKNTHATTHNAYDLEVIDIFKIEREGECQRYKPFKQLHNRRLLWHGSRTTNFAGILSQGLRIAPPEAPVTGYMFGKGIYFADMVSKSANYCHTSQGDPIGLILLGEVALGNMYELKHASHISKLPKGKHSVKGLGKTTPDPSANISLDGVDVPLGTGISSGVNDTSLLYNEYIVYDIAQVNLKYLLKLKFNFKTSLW

Structure (SMILES): CCc1cc2ncc(CN3CCN(c4ccc(C(=O)NC)nc4)CC3)cc2[nH]c1=O [AZD5305, reference compound]
- inhibitory effects on tumor growth compared to blank control group (breast cancer MDA-MB-436 [1]; 24 days): significant inhibitory effects on tumor growth
- Body weight X ± SD, End ([2]; 0.1 mg/kg orally once daily): 21.8 ± 1.0 g
- Body weight X ± SD, Start ([2]; 0.1 mg/kg orally once daily): 21.9 ± 0.7 g

Structure (SMILES): CCc1cc2ncc(CN3CC=C(c4ccc(C(=O)NC)nc4)CC3)cc2[nH]c1=O [Compound 1]
- tumor regression in large-volume tumors (breast cancer MDA-MB-436 [3]): complete regression of tumors
- CL/F [4]: 0.167 mL/min/kg
- Tumor inhibition rate (breast cancer MDA-MB-436 [1]; [5]): 82.18%
- Tumor weight X ± SD (breast cancer MDA-MB-436 [1]; [5]): 0.39 ± 0.28 g
- Tumor volume X ± SD, End (breast cancer MDA-MB-436 [1]; 0.1 mg/kg orally once daily, end, 24 days): 304.9 ± 141.7 mm^3
- Tumor volume X ± SD, Start (breast cancer MDA-MB-436 [1]; 0.1 mg/kg orally once daily, start): 271.4 ± 76.6 mm^3
- inhibitory effects on tumor growth compared to blank control group (breast cancer MDA-MB-436 [1]; 24 days): significant inhibitory effects on tumor growth
- IC50 (MDA-MB-436 cells): 0.9 nM
- Body weight X ± SD, End ([2]; 0.1 mg/kg orally once daily): 21.6 ± 1.1 g
- Body weight X ± SD, Start ([2]; 0.1 mg/kg orally once daily): 21.6 ± 0.3 g
- IC50 (DLD-1 cells): > 10000 nM

Structure (SMILES): [2H]C([2H])([2H])NC(=O)c1ccc(C2=CCN(Cc3cnc4cc(CC)c(=O)[nH]c4c3)CC2)cn1 [Compound 2]
- IC50 (MDA-MB-436 cells): 1.1 nM
- IC50 (DLD-1 cells): > 10000 nM

Structure (SMILES): [2H]C(c1cnc2cc(CC)c(=O)[nH]c2c1)N1CC=C(c2ccc(C(=O)NC)nc2)CC1 (stereo not shown) [Compound 3]
- IC50 (MDA-MB-436 cells): 1 nM
- IC50 (DLD-1 cells): > 10000 nM

Structure (SMILES): [2H]C([2H])([2H])NC(=O)c1ccc(C2=CCN(Cc3cnc4cc(C([2H])([2H])C([2H])([2H])[2H])c(=O)[nH]c4c3)CC2)cn1 [Compound 11, 1′-((7-(ethyl-d5)-6-oxo-5,6-dihydro-1,5-naphthyridin-3-yl)methyl)-N-(methyl-d3)-1′,2′,3′,6′-tet rahydro-[3,4′-bipyridine]-6-carboxamide]
- IC50 (MDA-MB-436 cells): 0.8 nM
- IC50 (DLD-1 cells): > 10000 nM

Structure (SMILES): [2H]C([2H])([2H])C([2H])([2H])c1cc2ncc(CN3CC=C(c4ccc(C(=O)NC5CC5)nc4)CC3)cc2[nH]c1=O [Compound 12, N-cyclopropyl-1′-((7-(ethyl-d5)-6-oxo-5,6-dihydro-1,5-naphthyridin-3-yl)methyl)-1′,2′,3′,6′-tet rahydro-[3,4′-bipyridine]-6-carboxamide]
- inhibition at 0.01 µM (PARP1): 99.8%
- inhibition at 0.1 µM (PARP1): 99.9%

Structure (SMILES): [2H]C([2H])([2H])C([2H])([2H])c1nc2ccc(CN3CC=C(c4ccc(C(=O)NC)nc4)CC3)c(F)c2[nH]c1=O [Compound 13, 1′-((2-(ethyl-d5)-5-fluoro-3-oxo-3,4-dihydroquinoxalin-6-yl)methyl)-N-methyl-1′,2′,3′,6′-tetra hydro-[3,4′-bipyridine]-6-carboxamide]
- inhibition at 0.01 µM (PARP1): 96.1%
- inhibition at 0.1 µM (PARP1): 98.5%

Structure (SMILES): [2H]C([2H])([2H])C([2H])([2H])c1nc2ccc(CN3CC=C(c4ccc(C(=O)NC)nc4F)CC3)c(F)c2[nH]c1=O [Compound 14, 1′-((2-(ethyl-d5)-5-fluoro-3-oxo-3,4-dihydroquinoxalin-6-yl)methyl)-2-fluoro-N-methyl-1′,2′,3′,6′-tetrahydro-[3,4′-bipyridine]-6-carboxamide]
- inhibition at 0.01 µM (PARP1): 98.9%
- inhibition at 0.1 µM (PARP1): 99.1%

Structure (SMILES): [2H]C([2H])([2H])Cc1cc2ncc(CN3CC=C(c4ccc(C(=O)NC)nc4)CC3)cc2[nH]c1=O [Compound 16, 1′-((7-(ethyl-2,2,2-d3)-6-oxo-5,6-dihydro-1,5-naphthyridin-3-yl)methyl)-N-methyl-1′,2′,3′,6′-t etrahydro-[3,4′-bipyridine]-6-carboxamide]
- IC50 (MDA-MB-436 cells): 0.7 nM
- IC50 (DLD-1 cells): > 10000 nM

Structure (SMILES): O=C(c1cc(Cc2n[nH]c(=O)c3ccccc23)ccc1F)N1CCN(C(=O)C2CC2)CC1 [Olaparib, reference compound]
- inhibitory effects on tumor growth compared to blank control group (breast cancer MDA-MB-436 [1]; 24 days): significant inhibitory effects on tumor growth
- Body weight X ± SD, End ([2]; 100 mg/kg orally once daily): 21.7 ± 1.4 g
- Body weight X ± SD, Start ([2]; 100 mg/kg orally once daily): 21.9 ± 1.1 g
